Laboratory results published in patent US20240132536A1, “CRYSTAL FORM OF 3-HYDROXY-5-PREGNANE-20-ONE DERIVATIVE, AND PREPARATION METHOD THEREFOR AND USE THEREOF” (priority 2021, published 2024).
Read-outs that look alike come from different tables or passages of the source.

How the values were obtained:
[1] = type: physicochemical; settings: for Purity by HPLC, high humidity (RH92.5%) / Purity by HPLC, high temperature (60° C.) / Purity by HPLC, light (4500 ± 500 Lux): hydrochloride
[2] = Polymorph study: crystalline form A suspended and pulped in solvents, precipitate assayed by XRPD; type: physicochemical; settings: for Crystalline form after suspension (XRPD): stirred 2 days at 40° C. in darkness
Method: (§1) XRPD (X-ray Powder Diffraction) Method 1: about 10 mg of a sample is uniformly laid on a single crystal silicon sample disc, and XRPD detection is performed using following parameters. Instrument model: X'Pert^3 X-ray diffractometer; target: Cu-Kα (40 mA, 45 kV); scanning range from 3° to 40° in the 2θ interval.
The solution was centrifuged to remove the precipitates, which were dried and assayed by XPRD as follows: […]

[3] = Mechanical stability of crystalline form A (XRPD after mechanical treatment); type: physicochemical
[4] = Accelerated stability test of crystalline form A (XRPD); type: physicochemical; settings: open, 40° C., RH75%, 3 months (sampled at 1, 2, 3 months)
Method: as §1

[5] = cited from earlier work
[6] = in vivo; cited from earlier work

| SMILES | Purity by HPLC, high humidity (RH92.5%) ([1]; day 0) | Purity by HPLC, high temperature (60° C.) ([1]; day 0) | Purity by HPLC, light (4500 ± 500 Lux) ([1]; day 0) | Purity by HPLC, high humidity (RH92.5%) ([1]; day 5) | Purity by HPLC, high temperature (60° C.) ([1]; day 5) | Purity by HPLC, light (4500 ± 500 Lux) ([1]; day 5) | Purity by HPLC, high humidity (RH92.5%) ([1]; day 10) | Purity by HPLC, high temperature (60° C.) ([1]; day 10) | Purity by HPLC, light (4500 ± 500 Lux) ([1]; day 10) | Purity by HPLC, high humidity (RH92.5%) ([1]; day 30) | Purity by HPLC, high temperature (60° C.) ([1]; day 30) | Purity by HPLC, light (4500 ± 500 Lux) ([1]; day 30) | other results |
| --- | --- | --- | --- | --- | --- | --- | --- | --- | --- | --- | --- | --- | --- |
| CC(=O)[C@H]1CC[C@H]2[C@@H]3CC[C@H]4C[C@H](OC(=O)[C@@H](NC(=O)CN)C(C)C)CC[C@]4(C)[C@H]3CC[C@]12C.Cl [crystalline form A, glycine-L-valine 3α-hydroxy-5α-pregnan-20-one ester hydrochloride] | 99.69% | 99.69% | 99.69% | 99.69% | 99.62% | 99.66% | 99.69% | 99.68% | 99.70% | 99.69% | 99.69% | 99.67% | Stability under high temperature, high humidity and light conditions (conclusion) ([1]; up to 30 days): stable; Crystalline form after suspension (XRPD) ([2]; Acetone): Crystalline form A; Crystalline form after suspension (XRPD) ([2]; Ethanol): Crystalline form A; Crystalline form after suspension (XRPD) ([2]; Ethyl acetate): Crystalline form A; Crystalline form after suspension (XRPD) ([2]; Methanol): Crystalline form A; Crystalline form after suspension (XRPD) ([2]; Methyl tert-butyl ether): Crystalline form A; Crystalline form after suspension (XRPD) ([2]; Toluene): Crystalline form A; Crystalline form after suspension (XRPD) ([2]; n-Heptane): Crystalline form A; Stability in different solvent systems (conclusion) ([2]; seven solvents, 2 days at 40° C.): remains stable; Effect of grinding, mechanical pulverising and pressure on stability (conclusion) [3]: no effects; Crystalline form after mechanical treatment (XRPD) ([3]; Ground in an agate mortar for a few minutes): Crystalline form A; Crystalline form after mechanical treatment (XRPD) ([3]; pressed in a tablet press): Crystalline form A; Crystalline form after mechanical treatment (XRPD) ([3]; pulverised in a mechanical shredder for a few minutes): Crystalline form A; Change of crystalline form (XRPD) after accelerated stability test [4]: no change |
| CC(=O)[C@H]1CC[C@H]2[C@@H]3CC[C@H]4C[C@H](O)CC[C@]4(C)[C@H]3CC[C@]12C [allopregnanolone] | – | – | – | – | – | – | – | – | – | – | – | – | human plasma half-life period [5]: about 45 minutes; oral availability [6]: poor |
| CC(=O)[C@H]1CC[C@H]2[C@@H]3CC[C@H]4C[C@H](OC(=O)[C@@H](NC(=O)CN)C(C)C)CC[C@]4(C)[C@H]3CC[C@]12C.Cl [crystalline form C, glycine-L-valine 3α-hydroxy-5α-pregnan-20-one ester hydrochloride] | 99.62% | 99.62% | 99.62% | 99.58% | 99.61% | 99.60% | 99.56% | 99.59% | 99.59% | 99.53% | 99.60% | 99.57% | – |
| CC(=O)[C@H]1CC[C@H]2[C@@H]3CC[C@H]4C[C@H](OC(=O)[C@@H](NC(=O)CN)C(C)C)CC[C@]4(C)[C@H]3CC[C@]12C.Cl [crystalline form B, glycine-L-valine 3α-hydroxy-5α-pregnan-20-one ester hydrochloride] | 99.59% | 99.59% | 99.59% | 99.58% | 99.57% | 99.55% | 99.55% | 99.54% | 99.53% | 99.56% | 99.52% | 99.52% | – |
